# US20170209403A1, “METHOD FOR REGULATING ALDEHYDE DEHYDROGENASE 1” (National Cheng Kung University, priority 2016, published 2017)
# Experiments:
# [1] = test system: A2780 and CP70 ovarian cancer cells; experiment: Sphere formation assay; assay type: cell-based, human; details: A2780-High and CP70-High cells; 10 μM ATRA for 28 days
# Method: FIGS. 1A-1F show ALDH1 regulates stemness and tumourigenic ability in ovarian cancer cells. […] A total of 1×10^3 A2780 (upper panel) and CP70 (lower panel) cells were seeded into a 96-well plate to evaluate the cells' sphere formation ability (scale bar=200 μm). DEAB was used to inhibit the reaction of ALDH1 and also served as a negative control. […] The β-actin was used as a protein loading control. The histogram represents the relative fold change of protein expression (right panel). […] A2780-ALDH1 (upper panel) and CP70-shALDH1 (lower panel) cells were seeded into 96-well plates to evaluate their sphere formation ability (scale bar=200 μm).
# FIGS. 2A-2D show ALDH1 regulates stemness and tumourigenic ability through the FoxM1 and Notch1 signalling pathways. […] Representative images show spheres generated from single-cell cultures after 10 days. The lower panel depicts the relative sphere formation ratio (scale bar=200 μm). […] V: vector.
# (§1) Standard sphere formation assays were performed according to Zhang et al. (Zhang, S. et al. Cancer Res., 68, 4311-4320.) with minor modification. The cells (1×10^3) were resuspended in serum-free DMEM/F12 medium supplemented with 5 μg/ml insulin (Sigma), 20 ng/ml human recombinant epidermal growth factor (EGF; Invitrogen, Life Technologies, Carlsbad, Calif.) and 10 ng/ml basic fibroblast growth factor (bFGF; Invitrogen) in ultra-low attachment plates (Corning Costar, Corning, N.Y.). Spheres that arose within 1-2 weeks were counted. Colony diameters >50 μm were counted as a single-positive colony. The middle field was chosen for counting of spheres, and two fields for each plate were counted under a dissecting microscope. For all sphere formation experiments, a minimum of eight wells was run for each condition. All data represent the mean ±SEM of three separate experiments and at least 24 different fields.
# (§2) An Aldefluor® kit (StemCell Technologies) was used to assess ALDH activity in the ovarian cancer cell lines, as previously described (Saw, Y. T. et al. (2012) BMC Cancer, 12, 329.). In brief, 1×10^6 cells were incubated in Aldefluor® assay buffer containing a 1.5 μM ALDH substrate for 30 min at 37° C. Each sample was treated with 50 μM of DEAB, and used as a negative control. Prior to analysis, cells were stained with […] of propidium iodide to evaluate their viability. The fluorescence intensity of the stained cells was analysed using a FACSAria cell sorter Flow Cytometer (BD Biosciences). The reaction with DEAB was used to define the baseline for the assay. The ALDH activity of a sample was determined to be ‘high’ or ‘low’ based on the fluorescence intensity beyond or below the threshold defined by the reaction with DEAB. The cells having high or low ALDH activity are marked “-High” or “-Low” hereafter.
# [2] = test system: ES2 cells (ES2-High, ES2-Low); experiment: Sphere formation assay; assay type: cell-based, human; details: ES2-High cells; ATRA (10 μM)
# Method: (§3) Right panel: relative fold changes of ALDH1 and FoxM1 expression compared with controls. […] Sphere formation in ES2-High cells after treatment with different concentrations of Thiostrepton or DAPT, and the relative fold changes in expression are shown (scale bar=200 μm).
# as §1, §2
# [3] = test system: ALDH1, FoxM1, Notch1, Oct-4 and Nanog expression in A2780 and CP70 cells; experiment: Western blotting of ALDH1, FoxM1, Notch1 and CSC markers; assay type: cell-based, human; details: A2780-High and CP70-High cells; 10 μM ATRA for 28 days
# ALDH1 [4] = experiment: Aldefluor assay of ALDH1 enzyme activity / ALDH1-High cell fraction; assay type: cell-based, human
# Method: as §2
# [5] = test system: A2780-High and CP70-High cells; experiment: Transwell migration assay; assay type: cell-based, human; details: 10 μM ATRA for 28 days
# Method: (§4) Cells (1×10^5) were seeded on Transwell filters with a pore size of 8 μm (Corning Costar) and were allowed to migrate toward medium containing 10% FBS. After 8 h, the cells on the upper surface of the Transwell membrane were removed with a cotton swab, and the migrated cells (on the underside of the Transwell) were fixed and stained with methanol and Giemsa staining dye (Merck, Darmstadt, Germany). The invasion assay was conducted in the same manner as the migration assay, except that Matrigel (BD Biosciences) was used, the incubation time differed (24 h) and the number of cells added to the upper chamber was 2×10^5 cells. Cell migration and invasion were quantified by counting the migrated cells in six random fields under a light microscope.
# [6] = test system: A2780-High and CP70-High cells; experiment: Transwell invasion assay; assay type: cell-based, human; details: 10 μM ATRA for 28 days
# Method: as §4
# ES2-High cells [7] = experiment: Transwell migration assay; assay type: cell-based, human; details: ATRA
# Method: as §3, §4
# [8] = test system: A2780 and CP70 ovarian cancer cells; experiment: MTT cytotoxicity assay (proliferation, doubling time); assay type: cell-based, human; details: A2780-High and CP70-High cells; ATRA treatment
# Method: (§5) The cell lines were cultured in a humidified incubator containing 95% air and 5% CO2 at 37° C. in 96-well flat-bottomed microtiter plates. After 72 h of incubation, the in vitro cytotoxic effects of treatments were determined by MTT assay (at 570 nm).
# ES2-High cells [9] = experiment: as above; assay type: cell-based, human; details: ATRA
# Method: as §3, §5
# A2780-High cells = experiment: Tumourigenesis of ATRA-pretreated cells in mouse xenograft; assay type: in vivo, NOD/SCID mice
# CP70-High cells = experiment: as above; assay type: in vivo, NOD/SCID mice
# Method: (§6) All animal studies adhered to protocols approved by the Institutional Animal Care and Use Committee of National Cheng Kung University Medical Centre. The mouse xenograft model was prepared as previously reported (Molthoff, C. F. et al. (1991) Int. J. Cancer, 47, 72-79). Briefly, cells were implanted in 50% Matrigel (BD Biosciences, San Jose, Calif.) and injected subcutaneously into the left flanks of 4- to 6-week-old female NOD/SCID (NOD.CB17-PRKDC (SCID)) mice. We observed mice for tumour formation every other day after cell inoculation and measured tumour size when it became measurable. Tumour size was measured using Vernier callipers by external measurement of the length and width, and the tumour volume was computed from the formula for an ellipsoid body […]. When the tumours reached ˜2000 mm^3 at approximately 28 days, the mice were sacrificed. […] All tumours were excised, fixed in 10% neutral buffered formalin, and embedded in paraffin for histological assessment or shock-frozen in liquid N2 and stored at −80° C. for further analysis.
# We then inoculated 1×10^4 ATRA-pretreated A2780-High or CP70-High cells into mice. […] However, these findings were not observed in ES2-Low cells (FIG. 4A and FIG. 4B).
# A2780-High tumour = experiment: Antitumour efficacy of ATRA in mouse xenografts; assay type: in vivo, NOD/SCID mice
# Method: (§7) Cell suspensions of 1×10^6 A2780-High or CP70-High cells were inoculated subcutaneously into mice.
# as §6, §7
# CP70-High tumour = experiment: Antitumour efficacy of ATRA in mouse xenografts; assay type: in vivo, NOD/SCID mice; details: 1×10^6 cells s.c.; ATRA 0.05 or 0.1 mg into the peritoneal cavity three times per week; at 22 days after tumour cell inoculation
# Method: as §7, §6, §7
# [10] = test system: ALDH1, FoxM1 and Notch-1 expression in ES2 cells; experiment: Western blotting of ALDH1, FoxM1 and Notch1; assay type: cell-based, human; details: ES2-High cells; ATRA
# ALDH1 [11] = experiment: Immunohistochemical staining for ALDH1 in tumour tissue sections
# [12] = 1×10^4 cells pretreated with ATRA (10 μM) for 28 days, inoculated into mice
# [13] = CP70-High cells pretreated with ATRA, 1 × 10^4 cells injected
compound,measurement,setting,value
"CC1=C(/C=C/C(C)=C/C=C/C(C)=C/C(=O)O)C(C)(C)CCC1 [ATRA, all-trans retinoic acid]",sphere formation ability,[1],significantly reduced
same,sphere formation ability,[2],inhibited
same,ALDH1 expression,[3],significantly reduced
same,FoxM1 expression,[3],significantly reduced
same,Notch1 expression,[3],significantly reduced
same,ALDH1 activity,"ALDH1 [4]; A2780-High and CP70-High cells, 10 μM ATRA for 28 days",significantly reduced
same,proportion of ALDH1-High cells,"ALDH1 [4]; A2780-Low and CP70-Low cells, ATRA (10 μM) or paclitaxel (60 ng/ml) for 4 days",decreased the proportion of ALDH1-High ovarian cancer cells
same,cell migration ability,[5],significantly reduced
same,cell invasion ability,[6],significantly reduced
same,cell migration ability,ES2-High cells [7],inhibited
same,proliferation (cell doubling time),[8],did not affect proliferation
same,proliferation (cell doubling time),ES2-High cells [9],did not affect proliferation
same,tumour formation ability,A2780-High cells; [12],almost completely abrogated
same,Number of tumours/number of injections,"A2780-High cells; A2780-High cells pretreated with ATRA, 1 × 10^4 cells injected",4/9
same,tumour size,CP70-High cells; [12],significant reduction of tumour size
same,Number of tumours/number of injections,CP70-High cells; [13],4/5
same,average tumour volume,CP70-High cells; [13],(545) mm^3
same,Tumour-initiating cell frequency,"CP70-High cells; CP70-High cells pretreated with ATRA, calculated with ELDA software",1/6213
same,tumour growth,"A2780-High tumour; 1×10^6 cells s.c., ATRA 0.05 or 0.1 mg into the peritoneal cavity three times per week",inhibited A2780-High tumour growth in a dose-dependent manner
same,effective dose for mice,"A2780-High tumour; mouse xenografts, administered doses 0.05 and 0.1 mg",at least 0.05 mg
same,tumour growth,CP70-High tumour,significantly suppressed
same,ALDH1 expression,[10],inhibited
same,FoxM1 expression,[10],inhibited
same,Notch1 expression,[10],inhibited
same,ALDH1 expression in tumour cells from tissue sections,ALDH1 [11]; ATRA-treated mice compared with control mice,downregulated
same,ALDH1 expression in tumour cells (immunostaining),ALDH1 [11]; tumours from ATRA-pretreated ALDH1-High cells,reduced ALDH1 expression
